Assay results from US20250144094A1 (Erasca, Inc., priority 2021, published 2025).

Each compound was assayed against Recombinant human ULK1 (1-649) (Homo sapiens (Human), UniProt O75385) (assay: ULK1 ADP Glo kinase activity assay, new method (ULKtide peptide substrate)). Conditions: 25° C., 40 minutes, read-out: ULK1 biochemical IC50.
How it was run: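 GST-tagged human ULK1 (1-649) from Sf9 cells was reacted with ULKtide peptide and ATP for 40 min at 25 °C across 12-point compound dilutions from 10 μM. ADP formed was quantified by ADP-Glo luminescence; IC50 came from four-parameter fits relative to DMSO controls.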

Sequence of Recombinant human ULK1 (1-649) (O75385 1-649): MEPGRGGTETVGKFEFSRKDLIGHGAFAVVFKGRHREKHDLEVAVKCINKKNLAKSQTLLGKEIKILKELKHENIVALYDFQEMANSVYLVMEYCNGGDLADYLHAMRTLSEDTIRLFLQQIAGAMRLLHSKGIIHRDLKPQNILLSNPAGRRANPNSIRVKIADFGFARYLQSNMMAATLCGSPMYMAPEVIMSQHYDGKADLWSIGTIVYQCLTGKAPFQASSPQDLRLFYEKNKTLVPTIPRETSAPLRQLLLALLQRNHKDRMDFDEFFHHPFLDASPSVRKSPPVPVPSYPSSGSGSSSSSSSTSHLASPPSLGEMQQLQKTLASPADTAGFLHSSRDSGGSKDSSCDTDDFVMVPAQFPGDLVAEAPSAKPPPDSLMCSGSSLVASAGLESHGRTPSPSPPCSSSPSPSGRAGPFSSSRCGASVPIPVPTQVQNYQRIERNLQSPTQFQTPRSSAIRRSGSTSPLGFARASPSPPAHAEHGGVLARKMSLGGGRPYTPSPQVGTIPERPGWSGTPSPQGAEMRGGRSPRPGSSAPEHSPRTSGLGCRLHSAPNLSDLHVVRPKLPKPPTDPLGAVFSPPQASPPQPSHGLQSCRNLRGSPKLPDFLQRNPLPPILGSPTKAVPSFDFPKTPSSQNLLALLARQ

Row | SMILES | IC50 [nM]
1 | C[C@@H]1CN(c2ccc(Nc3ncc(C(F)(F)F)c(-c4cc5c(s4)C(=O)N(C4CC4)CCS5(=O)=O)n3)c(C3CC3)c2)C[C@H](C)N1C [Example 343, 4-Cyclopropyl-7-(2-((2-cyclopropyl-4-((3S,5R)-3,4,5-trimethylpiperazin-1-yl)phenyl)amino)-5-(trifluoromethyl)pyrimidin-4-yl)-3,4-dihydrothieno[2,3-f][1,4]thiazepin-5(2H)-one 1,1-dioxide] | ≤ 5
2 | CCc1cc(N2C[C@@H]3C[C@H]2CN3C)ccc1Nc1ncc(C(F)(F)F)c(-c2cc3c(s2)C(=O)N(C2COC2)CCS3(=O)=O)n1 [Example 346, 7-(2-((2-Ethyl-4-((1S,4S)-5-methyl-2,5-diazabicyclo[2.2.1]heptan-2-yl)phenyl)amino)-5-(trifluoromethyl)pyrimidin-4-yl)-4-(oxetan-3-yl)-3,4-dihydrothieno[2,3-f][1,4]thiazepin-5(2H)-one 1,1-dioxide] | 5 to 10
3 | CCc1cc(N2C[C@H]3C[C@@H]2CN3C)ccc1Nc1ncc(C(F)(F)F)c(-c2cc3c(s2)C(=O)N(C2COC2)CCS3(=O)=O)n1 [Example 347, 7-(2-((2-ethyl-4-((1R,4R)-5-methyl-2,5-diazabicyclo[2.2.1]heptan-2-yl)phenyl)amino)-5-(trifluoromethyl)pyrimidin-4-yl)-4-(oxetan-3-yl)-3,4-dihydrothieno[2,3-f][1,4]thiazepin-5(2H)-one 1,1-dioxide] | ≤ 5
4 | CCc1cc(N2C[C@H]3CC[C@@H](C2)N3C)ccc1Nc1ncc(C(F)(F)F)c(-c2cc3c(s2)C(=O)N(C2COC2)CCS3(=O)=O)n1 [Example 348, 7-(2-((2-ethyl-4-((1R,5S)-8-methyl-3,8-diazabicyclo[3.2.1]octan-3-yl)phenyl)amino)-5-(trifluoromethyl)pyrimidin-4-yl)-4-(oxetan-3-yl)-3,4-dihydrothieno[2,3-f][1,4]thiazepin-5(2H)-one 1,1-dioxide] | ≤ 5
5 | CN1C2CC1CN(c1ccc(Nc3ncc(C(F)(F)F)c(-c4cc5c(s4)C(=O)N(C4COC4)CCS5(=O)=O)n3)c(C3CC3)c1)C2 [Example 349, 7-(2-((2-cyclopropyl-4-(6-methyl-3,6-diazabicyclo[3.1.1]heptan-3-yl)phenyl)amino)-5-(trifluoromethyl)pyrimidin-4-yl)-4-(oxetan-3-yl)-3,4-dihydrothieno[2,3-f][1,4]thiazepin-5(2H)-one 1,1-dioxide] | ≤ 5
6 | C[C@@H]1CN(c2ccc(Nc3ncc(C(F)(F)F)c(-c4cc5c(s4)C(=O)N(C4COC4)CCS5(=O)=O)n3)c(C3CC3)c2)C[C@H](C)N1 [Example 350, 7-(2-((2-cyclopropyl-4-((3S,5R)-3,5-dimethylpiperazin-1-yl)phenyl)amino)-5-(trifluoromethyl)pyrimidin-4-yl)-4-(oxetan-3-yl)-3,4-dihydrothieno[2,3-f][1,4]thiazepin-5(2H)-one 1,1-dioxide] | ≤ 5
7 | C[C@H]1CN(c2ccc(Nc3ncc(C(F)(F)F)c(-c4cc5c(s4)C(=O)N(C4COC4)CCS5(=O)=O)n3)c(C3CC3)c2)C[C@H](C)N1C [Example 351, 7-(2-((2-cyclopropyl-4-((3S,5S)-3,4,5-trimethylpiperazin-1-yl)phenyl)amino)-5-(trifluoromethyl)pyrimidin-4-yl)-4-(oxetan-3-yl)-3,4-dihydrothieno[2,3-f][1,4]thiazepin-5(2H)-one 1,1-dioxide] | 5 to 10
8 | CN1CCN(c2ccc(Nc3ncc(C(F)(F)F)c(-c4cc5c(s4)C(=O)N(C4CC4)CCS5(=O)=O)n3)c(C3CC3)c2)C[C@@H]1CO [Example 352, (R)-4-cyclopropyl-7-(2-((2-cyclopropyl-4-(3-(hydroxymethyl)-4-methylpiperazin-1-yl)phenyl)amino)-5-(trifluoromethyl)pyrimidin-4-yl)-3,4-dihydrothieno[2,3-f][1,4]thiazepin-5(2H)-one 1,1-dioxide] | ≤ 5
9 | CCc1cc(N2C[C@H](C)N[C@@H](C)C2)ccc1Nc1ncc(C(F)(F)F)c(-c2cc3c(s2)C(=O)N(C2CC2)CCS3(=O)=O)n1 [Example 356, 4-cyclopropyl-7-(2-((4-((3S,5S)-3,5-dimethylpiperazin-1-yl)-2-ethylphenyl)amino)-5-(trifluoromethyl)pyrimidin-4-yl)-3,4-dihydrothieno[2,3-f][1,4]thiazepin-5(2H)-one 1,1-dioxide] | ≤ 5
10 | CCc1cc(N2CCN[C@H](C)C2)ccc1Nc1ncc(C(F)(F)F)c(-c2cc3c(s2)C(=O)N(C2CC2)CCS3(=O)=O)n1 [Example 359, (R)-4-cyclopropyl-7-(2-((2-ethyl-4-(3-methylpiperazin-1-yl)phenyl)amino)-5-(trifluoromethyl)pyrimidin-4-yl)-3,4-dihydrothieno[2,3-f][1,4]thiazepin-5(2H)-one 1,1-dioxide] | ≤ 5
11 | CCc1cc(N2CCN(C)[C@@H](C)C2)ccc1Nc1ncc(C(F)(F)F)c(-c2cc3c(s2)C(=O)N(C2CC2)CCS3(=O)=O)n1 [Example 361, (S)-4-cyclopropyl-7-(2-((4-(3,4-dimethylpiperazin-1-yl)-2-ethylphenyl)amino)-5-(trifluoromethyl)pyrimidin-4-yl)-3,4-dihydrothieno[2,3-f][1,4]thiazepin-5(2H)-one 1,1-dioxide] | ≤ 5
12 | CCc1cc(N2CCN(C)[C@@H](C)C2)ccc1Nc1ncc(C(F)(F)F)c(-c2cc3c(s2)C(=O)N(C2COC2)CCS3(=O)=O)n1 [Example 362, (S)-7-(2-((4-(3,4-dimethylpiperazin-1-yl)-2-ethylphenyl)amino)-5-(trifluoromethyl)pyrimidin-4-yl)-4-(oxetan-3-yl)-3,4-dihydrothieno[2,3-f][1,4]thiazepin-5(2H)-one 1,1-dioxide] | ≤ 5
13 | CCc1cc(N2C[C@H](C)N(C)[C@@H](C)C2)ccc1Nc1ncc(C(F)(F)F)c(-c2cc3c(s2)C(=O)N(C2CC2)CCS3(=O)=O)n1 [Example 363, 4-cyclopropyl-7-(2-((2-ethyl-4-((3S,5S)-3,4,5-trimethylpiperazin-1-yl)phenyl)amino)-5-(trifluoromethyl)pyrimidin-4-yl)-3,4-dihydrothieno[2,3-f][1,4]thiazepin-5(2H)-one 1,1-dioxide] | ≤ 5

The next lines start with the values.

Row | IC50 [nM] | SMILES
14 | ≤ 5 | C[C@H]1CN(c2ccc(Nc3ncc(C(F)(F)F)c(-c4cc5c(s4)C(=O)N(C4COC4)CCS5(=O)=O)n3)c(C3CC3)c2)CCN1C [Example 342, (S)-7-(2-((2-cyclopropyl-4-(3,4-dimethylpiperazin-1-yl)phenyl)amino)-5-(trifluoromethyl)pyrimidin-4-yl)-4-(oxetan-3-yl)-3,4-dihydrothieno[2,3-f][1,4]thiazepin-5(2H)-one 1,1-dioxide]
15 | ≤ 5 | C[C@H]1CN(c2ccc(Nc3ncc(C(F)(F)F)c(-c4cc5c(s4)C(=O)N(C4COC4)CCS5(=O)=O)n3)c(C3CC3)c2)C[C@H](C)N1 [Example 344, 7-(2-((2-Cyclopropyl-4-((3S,5S)-3,5-dimethylpiperazin-1-yl)phenyl)amino)-5-(trifluoromethyl)pyrimidin-4-yl)-4-(oxetan-3-yl)-3,4-dihydrothieno[2,3-f][1,4]thiazepin-5(2H)-one 1,1-dioxide]
16 | ≤ 5 | O=C1c2sc(-c3nc(Nc4ccc(N5CCN[C@@H](CO)C5)cc4C4CC4)ncc3C(F)(F)F)cc2S(=O)(=O)CCN1C1CC1 [Example 345, (R)-4-cyclopropyl-7-(2-((2-cyclopropyl-4-(3-(hydroxymethyl)piperazin-1-yl)phenyl)amino)-5-(trifluoromethyl)pyrimidin-4-yl)-3,4-dihydrothieno[2,3-f][1,4]thiazepin-5(2H)-one 1,1-dioxide]
17 | ≤ 5 | CCc1cc(N2CCN[C@@H](C)C2)ccc1Nc1ncc(C(F)(F)F)c(-c2cc3c(s2)C(=O)N(C2CC2)CCS3(=O)=O)n1 [Example 353, (S)-4-cyclopropyl-7-(2-((2-ethyl-4-(3-methylpiperazin-1-yl)phenyl)amino)-5-(trifluoromethyl)pyrimidin-4-yl)-3,4-dihydrothieno[2,3-f][1,4]thiazepin-5(2H)-one 1,1-dioxide]
18 | ≤ 5 | CCc1cc(N2CCN[C@@H](C)C2)ccc1Nc1ncc(C(F)(F)F)c(-c2cc3c(s2)C(=O)N(C2COC2)CCS3(=O)=O)n1 [Example 354, (S)-7-(2-((2-ethyl-4-(3-methylpiperazin-1-yl)phenyl)amino)-5-(trifluoromethyl)pyrimidin-4-yl)-4-(oxetan-3-yl)-3,4-dihydrothieno[2,3-f][1,4]thiazepin-5(2H)-one 1,1-dioxide]
19 | ≤ 5 | CCc1cc(N2CCN[C@@H](CO)C2)ccc1Nc1ncc(C(F)(F)F)c(-c2cc3c(s2)C(=O)N(C2COC2)CCS3(=O)=O)n1 [Example 355, (R)-7-(2-((2-ethyl-4-(3-(hydroxymethyl)piperazin-1-yl)phenyl)amino)-5-(trifluoromethyl)pyrimidin-4-yl)-4-(oxetan-3-yl)-3,4-dihydrothieno[2,3-f][1,4]thiazepin-5(2H)-one 1,1-dioxide]
20 | ≤ 5 | C[C@@H]1CN(c2ccc(Nc3ncc(C(F)(F)F)c(-c4cc5c(s4)C(=O)N(C4COC4)CCS5(=O)=O)n3)c(C3CC3)c2)C[C@H](C)N1C [Example 357, 7-(2-((2-cyclopropyl-4-((3S,5R)-3,4,5-trimethylpiperazin-1-yl)phenyl)amino)-5-(trifluoromethyl)pyrimidin-4-yl)-4-(oxetan-3-yl)-3,4-dihydrothieno[2,3-f][1,4]thiazepin-5(2H)-one 1,1-dioxide]
21 | ≤ 5 | O=C1c2sc(-c3nc(Nc4ccc(N5CCN[C@@H](CO)C5)cc4C4CC4)ncc3C(F)(F)F)cc2S(=O)(=O)CCN1C1COC1 [Example 358, (R)-7-(2-((2-cyclopropyl-4-(3-(hydroxymethyl)piperazin-1-yl)phenyl)amino)-5-(trifluoromethyl)pyrimidin-4-yl)-4-(oxetan-3-yl)-3,4-dihydrothieno[2,3-f][1,4]thiazepin-5(2H)-one 1,1-dioxide]
22 | ≤ 5 | CCc1cc(N2CCN(C)[C@H](C)C2)ccc1Nc1ncc(C(F)(F)F)c(-c2cc3c(s2)C(=O)N(C2CC2)CCS3(=O)=O)n1 [Example 360, (R)-4-cyclopropyl-7-(2-((4-(3,4-dimethylpiperazin-1-yl)-2-ethylphenyl)amino)-5-(trifluoromethyl)pyrimidin-4-yl)-3,4-dihydrothieno[2,3-f][1,4]thiazepin-5(2H)-one 1,1-dioxide]
